The values below come from PubChem BioAssay (NCI).

SMILES strings stand for the structures.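 Each compound was tested at five concentrations against cells in 96-well plates for 48 hours. GI50 = concentration required for 50% inhibition of growth. At the TGI there is no net growth.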

What all share (experiment): inhibition of tumour cell growth, NCI panel, 48 h
The test system of assay [1] is A549 NSCLC.
The test system of assay [2] is HCC-2998 colon.
The subject of assay [3] is HL-60(TB) leukemia.
Assay [4] deals with K-562 leukemia.
In assay [5] the test system is UACC-62 melanoma.
Assay [6] relates to LOX IMVI melanoma.
In assay [7] the test system is M14 melanoma.
Assay [8] deals with OVCAR-3 ovarian.
Assay [9] relates to 786-0 renal.
Assay [10] has as its system SNB-75 CNS.

`COc1cc2cc3c4c(cc(OC)c(OC)c4c2cc1OC)CCN3C(=O)CCCC(=O)O`: the TGI in assay [1], in assay [2], in [3], in assay [4], in [5] and in [6] was over 100 µM in each case. Also, the TGI in assay [7], in assay [8] and in assay [9] was over 100 µM in each case.

For the molecule `COc1ccc(/C=C/C(=O)c2sc(N)nc2C)cc1`, the TGI in assay [1], in [2], in [3], in assay [4], in assay [10] and in assay [5] was over 100 µM each time. Moreover, the TGI in assay [6], in assay [8] and in [9] was over 100 µM each time.

For `CC(=O)OC1(C#N)CC2OC1C1C2N1C(=O)c1ccccc1` (stereo not drawn), the TGI in [1], in assay [2], in assay [3], in assay [4], in assay [10] and in [5] was over 100 µM throughout. Moreover, the TGI in assay [6], in assay [7] and in assay [9] was over 100 µM in each case.

For the molecule `CN(C)c1cccc(-c2cc(=O)c3ccccc3[nH]2)c1`, the TGI in assay [1] was over 100 µM; in assay [2], over 100 µM; in assay [3], 74.6 µM; in assay [5] it was over 100 µM; in assay [6], over 100 µM; in assay [7], over 100 µM. The TGI in assay [8] and in [9] was over 100 µM in each case. For the same molecule, in [8], the GI50 is 42.1 µM.

`CCc1cccc(C(C)CC)c1N=C(NC(=O)c1ccccc1C(=O)NC(=Nc1c(CC)cccc1C(C)CC)SC)SC` (stereo not drawn): the TGI was over 100 µM in [1]; over 100 µM in assay [2]; 51.5 µM in assay [3]; over 100 µM in [4]; 53.5 µM in [5]; over 100 µM in [6]. The figures for the TGI in assay [7], in assay [8] and in [9] were 44.5 µM, over 100 µM and over 100 µM, respectively.

Take `CC(=O)CC(=O)CCCC(=O)Nc1ccc(Cl)cc1C`: the TGI in assay [1], in assay [2], in assay [3], in assay [4], in [5] and in assay [6] was over 100 µM each time. Also, the TGI in assay [7], in [8] and in assay [9] was over 100 µM each time.

On to `NC(=O)c1ccccc1NC(=O)C(=O)C(C(=O)c1ccc2ccccc2c1)C1OC(=O)c2ccccc21` (stereo not drawn), for which the TGI is 50.5 µM in assay [1]; 20.1 µM in assay [2]; 83.9 µM in assay [4]; 45.2 µM in assay [10]; 22.5 µM in assay [5]; 29.9 µM in assay [6]. Also, the values for the TGI in assay [7], in assay [8] and in assay [9] were 30 µM, 39.6 µM and 19.9 µM, respectively.

For the molecule `C=CCC(C(=O)OC)C1(C(=O)OC)c2[nH]c3ccccc3c2CCN1Cc1ccccc1` (stereo not drawn), the TGI in assay [1], in assay [2], in [3], in [10], in assay [5] and in assay [7] was over 100 µM throughout. The TGI in assay [8] and in assay [9] was over 100 µM each time.

As to `C/C(=N\NC(=O)CC(=O)Nc1ccc(C)cc1)c1cc2ccccc2oc1=O`, the TGI was over 100 µM in assay [1]; over 100 µM in [3]; over 100 µM in [4]; 76.6 µM in assay [10]; over 100 µM in [5]; over 100 µM in [6]. The TGI in assay [7], in assay [8] and in [9] was over 100 µM in each case.

`Cc1ccc(-n2c3c(c4c(CN5CCCCC5)c(O)ccc42)CCc2ccccc2C3=O)cc1`: the GI50 was over 100 µM in assay [1]; over 100 µM in [2]; 0.477 µM in assay [3]; 32.2 µM in [4]; 97.4 µM in assay [5]; over 100 µM in assay [6]. Moreover, the GI50 in assay [7] is over 100 µM; in assay [8], over 100 µM; in [9], 33.5 µM. Moreover, the TGI in assay [1], in assay [2], in assay [3], in [4], in [5] and in [6] was over 100 µM in each case. In addition, the TGI in assay [7], in [8] and in [9] was over 100 µM in each case.

Consider `Cc1cc2c3ccccc3n(C)c2c2c1C(=O)c1ccccc1C2=O`, for which the TGI in [1] was 58 µM; in [2] it was 43.6 µM; in [3] it was 27.7 µM; in assay [4] it was 55.1 µM; in assay [10] it was over 100 µM; in [5] it was 57.3 µM. The values for the TGI in [7], in assay [8] and in assay [9] were 40.9 µM, 54.1 µM and 34.3 µM, respectively.

On to `N=C(N)n1ncc(Cl)c(Cl)c1=O`, for which the TGI in [1] worked out at 33.6 µM; in assay [4], 6.36 µM; in assay [10], 9.24 µM; in assay [5], 5.76 µM; in assay [7], 4.03 µM; in assay [8], 3.31 µM. This molecule also registered a TGI in assay [9] of 7.02 µM.

Take `CC1=C(C(=O)Nc2cccc(C(F)(F)F)c2)C(c2ccc(O)cc2)C(C(=O)Nc2cccc(C(F)(F)F)c2)=C(C)N1`: the TGI is over 100 µM in [1]; 36.3 µM in [2]; 38.7 µM in assay [3]; 44.7 µM in assay [4]; 63.9 µM in assay [10]; 33.1 µM in assay [6]. The TGI in assay [7] was determined as 35.5 µM; in assay [8], 31.8 µM; in [9], 35.8 µM.

For `O=[N+]([O-])c1cccc(C2SCc3nc4ccccc4n32)c1` (stereo not drawn), the TGI in [1], in assay [3], in assay [4], in assay [5], in assay [6] and in [9] was over 100 µM in each case.

For the molecule `CC(=O)Nc1ccc2nncnc2c1`, the TGI in assay [1], in assay [3], in assay [4], in assay [10], in assay [5] and in [6] was over 100 µM throughout. Moreover, the TGI in assay [7], in assay [8] and in [9] was over 100 µM in each case.

For `COc1cc(/C=C/C(=O)C(=Cc2ccc(F)c(F)c2)C(=O)/C=C/c2ccc(O)c(OC)c2)ccc1O`, the GI50 was 3.34 µM in assay [1]; 1.98 µM in [2]; 2.67 µM in [3]; 3.16 µM in assay [4]; 1.91 µM in [10]; 1.93 µM in assay [5]. Besides, the GI50 in assay [6] was 1.95 µM; in assay [8], 1.91 µM; in assay [9] it was 2.32 µM. Also, the TGI in [1] was 16.9 µM; in assay [2] it was 3.79 µM; in assay [3], 6.85 µM; in assay [4] it was 32.8 µM; in assay [10] it was 5.97 µM; in [5], 5.14 µM. Moreover, the TGI in assay [6] came out at 4.48 µM; in assay [8], 4.78 µM; in assay [9], 5.5 µM.

For the molecule `CC(=O)OC1C=CC2CCN3C(=O)c4cc5c(cc4[C@H]1C23)OCO5` (stereo partly drawn), the TGI in assay [1], in assay [3], in assay [4], in [10], in assay [5] and in assay [6] was over 100 µM throughout. Besides, the TGI in [7], in [8] and in assay [9] was over 100 µM in each case.

In the case of `COc1ccc(/C=C2/C(=O)N(C(=O)c3ccccc3O)N=C2C)cc1OC`, the TGI was over 100 µM in assay [1]; over 100 µM in assay [2]; over 33.6 µM in assay [3]; over 100 µM in assay [4]; 0.591 µM in assay [5]; over 54.2 µM in assay [6]. For the same molecule, the TGI in [7] is over 55.6 µM; in [8], 10.5 µM; in assay [9], over 100 µM.

As to `CC/C(=N\Nc1nc2ccccc2n1C)c1ccccn1`, the GI50 in assay [1] is 0.103 µM; in assay [2], 0.314 µM; in [3], 0.0252 µM; in assay [4] it was 0.0102 µM; in assay [10] it was 0.478 µM; in assay [5], 0.142 µM. For the same molecule, the GI50 in assay [6] was 0.118 µM; in assay [8] it was under 0.01 µM; in [9] it was 0.211 µM. Also, the TGI is 11.4 µM in [1]; 7.23 µM in assay [2]; 0.319 µM in [3]; over 100 µM in [4]; 8.84 µM in assay [10]; 0.839 µM in assay [5]. Besides, the TGI in [6] turned out to be 5.32 µM; in [8] it was 10.9 µM; in assay [9], 1.52 µM.

For the molecule `O=S(=O)(NCCNc1nccc(-c2c(-c3cccc(O)c3)nc3sccn23)n1)c1ccc(F)cc1`, the GI50 in [1] is 3.51 µM; in assay [2], 10.2 µM; in assay [4], 3.88 µM; in assay [10], 1.2 µM; in [5], 0.26 µM; in [6], 4.11 µM. Further, the figures for the GI50 in assay [7], in assay [8] and in assay [9] were 0.568 µM, 8.53 µM and 5.35 µM, respectively. Besides, the TGI was 36.1 µM in assay [1]; 25.7 µM in assay [2]; over 100 µM in [4]; 34.9 µM in assay [10]; 10.3 µM in [5]; 20.1 µM in [6]. Moreover, the TGI in assay [7] was found to be 16.6 µM; in assay [8], 34.5 µM; in assay [9] it was 41.8 µM.

As for `Cc1ccc2nc3c(Cl)cc(=O)cc-3sc2c1`, the TGI in assay [1] amounted to 43 µM; in assay [3], 20.5 µM; in assay [4], 56.1 µM; in assay [10] it was 57.7 µM; in assay [5] it was 31.8 µM; in [7] it was 60.5 µM. The TGI in assay [8] was 10.6 µM; in [9], 35.7 µM.

As for `O=C1C=C2S[C@H]3C[C@]2(C=C1Br)c1c(c(O)c2c4c1=NCCC=4C=N2)N3`, the TGI in assay [1] is 6.85 µM; in assay [2] it was 4.98 µM; in [10], 2.92 µM; in [5] it was 1.23 µM; in assay [6], 1.27 µM; in [7], 2.01 µM. Moreover, the values for the TGI in assay [8] and in assay [9] were 1.12 µM and 2.14 µM, respectively.

Regarding `CCOC(=O)CC(=O)ON(C)C(=O)Cc1ccccc1`, the TGI in [1], in assay [3], in [5], in assay [6], in [7] and in [8] was over 100 µM each time. The TGI in [9] was over 100 µM.

Consider `COc1cccc(Nc2nc(NNC(=O)Cc3ccccc3)nc(NNC(=O)c3ccncc3)n2)c1`, for which the GI50 in assay [1] is over 100 µM; in assay [4] it was over 100 µM; in assay [5], 36 µM; in [9] it was over 100 µM. Moreover, the TGI in assay [1], in assay [3], in assay [4], in assay [10], in assay [5] and in assay [6] was over 100 µM each time. Further, the TGI in assay [7], in assay [8] and in assay [9] was over 100 µM throughout.

In the case of `O=C(c1cc2ccccc2[nH]1)C(O)(c1cc2ccccc2[nH]1)c1cc2ccccc2[nH]1`, the TGI in assay [1], in [2], in [3], in assay [4], in [5] and in assay [6] was over 246 µM throughout. In addition, the TGI in assay [8] and in assay [9] was over 246 µM in each case.

For the molecule `NC(=S)N/N=C(/CC(=O)c1ccc([N+](=O)[O-])cc1)C(=O)Nc1ncc([N+](=O)[O-])s1`, the TGI in [1], in assay [2], in [3], in [10], in assay [5] and in assay [6] was over 100 µM in each case. The TGI in [7], in [8] and in [9] was over 100 µM in each case.
